Laboratory results reported in ChEMBL document CHEMBL2074455, “The fluorescent probe Bodipy-FL-verapamil is a substrate for both P-glycoprotein and multidrug resistance-related protein (MRP)-1” (J Histochem Cytochem, 2002).

Columns and labels:
[1] = target: ATP-dependent translocase ABCB1 (Mus musculus, UniProt P21447); assay: TP_TRANSPORTER: efflux, inhibited by Verapamil in P388/ADR cells; format: functional, cell-based
[2] = target: Multidrug resistance-associated protein 1 (Homo sapiens, UniProt P33527); assay: TP_TRANSPORTER: efflux, inhibited by MK571 in PANC-1 cells; format: functional, cell-based
Sequence of Multidrug resistance-associated protein 1 (P33527 whole entry): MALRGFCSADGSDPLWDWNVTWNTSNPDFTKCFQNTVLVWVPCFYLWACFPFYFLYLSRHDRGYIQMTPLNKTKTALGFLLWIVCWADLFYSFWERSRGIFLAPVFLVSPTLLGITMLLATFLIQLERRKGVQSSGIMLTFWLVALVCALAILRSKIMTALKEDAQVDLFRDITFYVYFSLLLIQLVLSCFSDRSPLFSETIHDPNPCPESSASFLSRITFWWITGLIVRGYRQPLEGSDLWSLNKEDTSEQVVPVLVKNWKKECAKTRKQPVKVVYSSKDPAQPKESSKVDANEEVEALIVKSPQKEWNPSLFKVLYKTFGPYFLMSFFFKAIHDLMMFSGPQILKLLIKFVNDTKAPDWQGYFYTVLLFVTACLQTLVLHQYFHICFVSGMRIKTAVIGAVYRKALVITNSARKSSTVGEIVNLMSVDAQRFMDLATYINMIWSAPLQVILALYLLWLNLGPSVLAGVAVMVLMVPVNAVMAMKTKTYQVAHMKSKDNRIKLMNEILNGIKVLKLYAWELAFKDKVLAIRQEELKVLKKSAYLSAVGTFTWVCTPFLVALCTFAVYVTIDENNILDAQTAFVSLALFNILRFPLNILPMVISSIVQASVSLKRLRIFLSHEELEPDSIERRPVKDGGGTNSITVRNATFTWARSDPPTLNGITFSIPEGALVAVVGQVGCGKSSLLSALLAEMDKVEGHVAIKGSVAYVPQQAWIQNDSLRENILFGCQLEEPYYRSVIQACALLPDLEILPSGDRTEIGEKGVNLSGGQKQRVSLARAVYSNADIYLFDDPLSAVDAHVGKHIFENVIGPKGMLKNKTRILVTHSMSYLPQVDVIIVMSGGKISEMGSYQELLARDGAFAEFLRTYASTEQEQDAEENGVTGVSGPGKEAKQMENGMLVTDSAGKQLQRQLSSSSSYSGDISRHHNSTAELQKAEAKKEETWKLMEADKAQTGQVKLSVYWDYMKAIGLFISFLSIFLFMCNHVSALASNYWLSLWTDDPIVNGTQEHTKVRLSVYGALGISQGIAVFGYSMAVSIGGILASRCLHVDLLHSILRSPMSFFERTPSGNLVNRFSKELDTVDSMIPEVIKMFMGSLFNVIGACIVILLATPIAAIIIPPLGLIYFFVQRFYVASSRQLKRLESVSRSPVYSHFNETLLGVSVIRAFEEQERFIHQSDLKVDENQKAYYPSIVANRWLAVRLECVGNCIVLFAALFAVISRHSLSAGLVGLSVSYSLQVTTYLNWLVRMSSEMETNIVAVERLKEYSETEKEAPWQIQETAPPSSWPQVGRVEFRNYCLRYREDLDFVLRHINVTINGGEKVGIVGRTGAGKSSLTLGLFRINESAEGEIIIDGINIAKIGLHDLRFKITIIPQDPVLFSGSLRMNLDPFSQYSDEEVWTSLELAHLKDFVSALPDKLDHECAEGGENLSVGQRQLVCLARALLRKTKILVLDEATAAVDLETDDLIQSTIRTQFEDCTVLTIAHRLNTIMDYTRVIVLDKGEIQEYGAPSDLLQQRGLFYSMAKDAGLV

Sequence of ATP-dependent translocase ABCB1 (P21447 whole entry): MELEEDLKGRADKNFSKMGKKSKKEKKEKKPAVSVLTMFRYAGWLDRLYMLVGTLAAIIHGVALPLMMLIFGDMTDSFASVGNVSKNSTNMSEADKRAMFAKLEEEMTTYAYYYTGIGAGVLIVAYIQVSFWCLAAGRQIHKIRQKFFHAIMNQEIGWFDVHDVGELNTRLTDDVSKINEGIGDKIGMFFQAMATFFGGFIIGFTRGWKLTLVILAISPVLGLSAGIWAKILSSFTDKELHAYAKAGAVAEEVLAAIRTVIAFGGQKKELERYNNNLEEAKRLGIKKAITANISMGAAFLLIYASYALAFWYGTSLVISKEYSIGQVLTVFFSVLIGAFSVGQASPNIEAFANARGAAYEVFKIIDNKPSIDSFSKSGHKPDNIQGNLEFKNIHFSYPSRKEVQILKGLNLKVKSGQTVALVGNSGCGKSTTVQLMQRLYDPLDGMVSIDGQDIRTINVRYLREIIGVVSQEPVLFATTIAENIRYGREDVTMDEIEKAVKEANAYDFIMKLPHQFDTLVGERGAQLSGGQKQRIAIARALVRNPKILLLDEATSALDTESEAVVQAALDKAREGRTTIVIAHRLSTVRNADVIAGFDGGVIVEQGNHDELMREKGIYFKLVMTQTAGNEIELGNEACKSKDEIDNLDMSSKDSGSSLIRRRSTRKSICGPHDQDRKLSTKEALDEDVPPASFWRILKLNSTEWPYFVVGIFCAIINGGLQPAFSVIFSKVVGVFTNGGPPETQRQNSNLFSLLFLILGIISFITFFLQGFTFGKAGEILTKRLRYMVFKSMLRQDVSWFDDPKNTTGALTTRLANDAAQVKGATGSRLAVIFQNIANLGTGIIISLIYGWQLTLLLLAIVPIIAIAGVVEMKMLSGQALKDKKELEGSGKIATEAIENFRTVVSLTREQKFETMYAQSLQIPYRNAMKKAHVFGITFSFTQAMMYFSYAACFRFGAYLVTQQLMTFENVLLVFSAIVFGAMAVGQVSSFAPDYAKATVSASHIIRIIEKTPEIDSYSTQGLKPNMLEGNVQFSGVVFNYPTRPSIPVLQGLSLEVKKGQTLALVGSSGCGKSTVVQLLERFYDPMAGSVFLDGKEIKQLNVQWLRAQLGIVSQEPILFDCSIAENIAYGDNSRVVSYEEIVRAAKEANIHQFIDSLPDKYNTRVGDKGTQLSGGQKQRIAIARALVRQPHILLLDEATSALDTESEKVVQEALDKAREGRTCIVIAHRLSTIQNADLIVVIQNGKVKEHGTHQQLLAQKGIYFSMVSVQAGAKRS

Activity [1]: substrate [+] | Activity [2]: substrate [+]
SMILES: COc1ccc(CCN(C)CCCC(CNC(=O)NCC2=[N+]3C(=Cc4c(C)cc(C)n4[B-]3(F)F)C=C2)(c2ccc(OC)c(OC)c2)C(C)C)cc1OC (configuration not stated)
